{"source": "patent US20240287054A1", "about": "“COMPOUNDS THAT BIND NON-CANONICAL G-QUADRUPLEX STRUCTURES AND METHODS OF MAKING AND USING THE SAME” (The U.S.A., as Represented by the Secretary, Department of …, priority 2021, published 2024)", "key": {"[1]": {"tested_on": "BCL2 HP-G4", "experiment": "FIA binding test with BCL2 HP-G4 (parallel structure)", "experimental": "(§1) In this study, FIA was used for validating the bindings between certain bivalent and MYCN G4 oligos. To measure the binding affinity, a solution of each compound was prepared in triplicate in a 96 well-plate (Costar, black side clear bottom), resulting in a final concentration of 100 nM (5% final DMSO in the working solution). Unlabeled MYCN G4 DNA was folded based on the above-mentioned annealing method, then added into the well plate resulting in different concentrations by a seral dilution. The plate was incubated at room temperature for 30 min, followed by centrifuging at 500 rpm for 2 minutes. The fluorescence intensity was then quantitatively recorded by a Synergy Mx microplate reader (BioTek) at Ex 340 nm/Em 500 nm. The fluorescence intensities were then normalized, and the binding affinity was calculated by fitting the curve using one-site total model in GraphPad Prism 8.3.1 software.\n(§2) In addition to the DMS-footprinting study, the bivalent binding mode of compound B33 toward MYCN hairpin-G4 was also investigated by comparing HP-G4s with different folding types. Four reported HP-G4s with parallel structure (BCL2), (3+1) hybrid structure (HIV and PIM1-form1), and (2+2) chair-type structure (PIM1-form2) were examined by FIA binding test using compound B33 (FIGS. 41A, 41B, 42A, 42B, 43A, 43B, 44A, and 44B). […]"}, "[2]": {"molecular_target": "PIM1-form1 HP-G4", "experiment": "FIA binding test with PIM1-form1 HP-G4 ((3+1) hybrid structure)", "experimental": "as §1, §2"}, "[3]": {"molecular_target": "PIM1-form2 HP-G4", "experiment": "FIA binding test with PIM1-form2 HP-G4 ((2+2) chair-type structure)", "conditions": "read-out: binding affinity, PIM1-form2 HP-G4", "experimental": "as §1, §2"}, "[4]": {"tested_on": "MYCN G4 DNA", "experiment": "Fluorescence quenching of position-labeled MYCN G4 (2-AP at A11/A18/A24, 5′/3′-Cy5)", "assay_type": "binding, human", "experimental": "Fluorescence intensity assay. In this disclosure, fluorescence intensity assay (FIA) was used for both validation of hit binding at a single dose and binding affinity determination. For validating hit compounds from SMM screening, 100 μM solution of each compound was prepared in triplicate in a 96 well-plate (Costar, black side clear bottom), resulting in 5% DMSO concentration. 5′Cy5-labeled MYCN G4 DNA was annealed as described above, then added into the well plate resulting in a final concentration of 100 nM. The plate was incubated shaking for 30 min, followed by centrifuging at 500 rpm for 2 minutes. The fluorescence intensity was then measured on a Synergy Mx microplate reader (BioTek) at Ex 649 nm/Em 670 nm. TMPyP4/DMSO were used as positive and negative controls, respectively. In certain examples, compounds were considered binders when a change of >10% change in fluorescence intensity was observed compared to that of negative control (DMSO solution). For binding affinity measurement, small molecule solutions were prepared as serial dilutions in DMSO. Then a final test plate was prepared by adding 5 μL small molecule solutions and 10 μL annealed DNA samples into 85 μL buffer solutions, resulting in the final small molecule concentrations from 0 to 250 μM (5% final DMSO concentration). The fluorescence intensities were normalized, and the binding affinity was calculated by fitting the curve using one-site total model in GraphPad Prism 8.3.1 software. The fluorescence titration using 3′-labeled oligonucleotides was also performed the same way.\n2-Aminopurine (2-AP) fluorescence titration. Fluorescence titrations based on 2-aminopurine labeling were performed using the protocol reported previously. Briefly, MYCN G4 oligonucleotide with a 2-AP substitution at either A11 or A18 position was annealed by heating the sample to 95° C. for 5 min and cooling down to RT slowly. The oligonucleotide with folded structure was diluted to 10 μM in Tris buffer (10 mM Tris, pH7.0, 100 mM KCl, 0.005% Tween 20) and prepared in a black 96-well plate (Costar) in triplicate as designed. Small molecules were diluted in DMSO to obtain a series of solutions with concentrations ranging from 0.1 to 5 mM, and then diluted by 20 times added into the plate (5% DMSO final concentration). The final concentration of 2-AP DNA was 1 μM in the well plate. To obtain the background fluorescence, small molecule solutions without DNA were also prepared in the same plate. After incubation for 30 min at RT, the plate was briefly centrifuged and scanned in Synergy Mx microplate reader (BioTek) with Ex 310 nm/Em 365 nm. Fluorescence signals were calculated by averaging the intensities in triplicate wells after subtracting the references. Finally, the binding signals were normalized and the KD value was determined by fitting the curve using a nonlinear sigmoidal dose-response model with a variable slope in GraphPad Prism 8.3.1 software.\nTo further understand the binding details between compound MY-1 and MYCN G4, a series of FIA studies were designed and performed. […] After incubating 100 μM MY-1 with labeled DNA samples, fluorescence intensities were measured and compared to DMSO controls. Fluorescence of the A11 2-AP DNA sample was quenched by almost 100%, while the quenching percentages were 80% and 70% for A18 and A24 2-AP DNAs, respectively (FIG. 24B, FIGS. 25A-25C). […]"}, "[5]": {"tested_on": "MYCN G4 DNA", "experiment": "SPR competitive binding assay on MYCN G4", "set-up": "species or system human", "experimental": "Based on this unexpected observation, and without being bound to a single theory, it currently is believed that the two compounds might bind to MYCN G4 on different sites. To investigate, a competitive assay on SPR was performed by injecting the compounds step-wise in a designated order or injecting a mixture (Brooks et al., Drug Discovery Today 2014, 19:1040-1044; Spurny et al., PNAS 112:E2543-2552). […] Next, TMPyP4, a classical stacking G4-binder (Seenisamy, JACS 2004, 126:8702-8709), was also tested together with MY-1. […] In addition, a CD melting assay was also performed using either MY-1 or a mixture of two hits (1 and MY-1)."}}}
{"smiles": "COc1ccc(-c2noc(-c3ccc(NCCCNc4c5ccc(Cl)cc5nc5ccc(OC)cc45)nn3)n2)cc1", "note": "[B33, N^1-(6-chloro-2-methoxyacridin-9-yl)-N^3-(6-(3-(4-methoxyphenyl)-1,2,4-oxadiazol-5-yl)pyridazin-3-yl)propane-1,3-diamine]", "values": [{"measurement": "fold weaker than MYCN HP-G4", "setting": "[1]; BCL2 HP-G4 vs MYCN HP-G4", "result": "~4", "unit": "times"}, {"measurement": "Kd", "setting": "[1]; FIA", "result": "258 ± 39", "unit": "nM"}, {"measurement": "Kd", "setting": "[2]", "result": "279 ± 32", "unit": "nM"}, {"measurement": "Kd", "setting": "[3]", "result": "1100 ± 400", "unit": "nM"}]}
{"smiles": "COc1ccc(-c2noc(-c3ccc(NCCCN4CCCC4)nn3)n2)cc1", "note": "[MY-1, 6-(3-(4-methoxyphenyl)-1,2,4-oxadiazol-5-yl)-N-(3-(pyrrolidin-1-yl)propyl)pyridazin-3-amine]", "values": [{"measurement": "fluorescence quenching, 3′-Cy5 labeled oligo", "setting": "[4]; 100 μM MY-1", "result": 0, "unit": "%"}, {"measurement": "fluorescence quenching, 5′-Cy5 labeled oligo", "setting": "[4]; 100 μM MY-1", "result": 15, "unit": "%"}, {"measurement": "fluorescence quenching, A11 2-AP DNA", "setting": "[4]; 100 μM MY-1 vs DMSO control", "result": "~100", "unit": "%"}, {"measurement": "fluorescence quenching, A18 2-AP DNA", "setting": "[4]; 100 μM MY-1 vs DMSO control", "result": 80, "unit": "%"}, {"measurement": "fluorescence quenching, A24 2-AP DNA", "setting": "[4]; 100 μM MY-1 vs DMSO control", "result": 70, "unit": "%"}, {"measurement": "binding level of MY-1 after injection of 1", "setting": "[5]; 100 μM of 1 followed by 100 μM of MY-1, also 500 μM of 1", "result": "not significantly changed"}, {"measurement": "SPR binding signal on addition of MY-1 to TMPyP4 solution", "setting": "[5]; MY-1 100 μM and 250 μM in TMPyP4 solution", "result": "increase of SPR binding signals"}]}
